Data on 39 compounds can be found in ChEMBL document CHEMBL3507680, “University of Dundee, Gates Library screen for HepG2 cell viability”.

Each structure is given as a SMILES string.

A short description of this data set: Human HepG2 cell viability assay in 384 well format. The data set is classed as toxicity, cell-based. The arrangement: dose 125 nL, time 70.5 hour; concentration not given beside the values. The conditions noted are these: HepG2 cells, read-out: Inhibition.
In the case of `O=C(CCn1cncn1)N1CCC2(CC1)[C@H](O)C[C@@H]2OCCO`, the cytotoxicity at 70.5 h came out at 0.165%.

Regarding `O=C(Nc1ccc2occc2c1)N1CCCC(O)(CO)CC1` (centres undefined), the cytotoxicity at 70.5 h was -1.52%.

Consider `CNS(=O)(=O)c1cccc(C(C)NCc2ccncc2)c1` (centres undefined), for which the cytotoxicity at 70.5 h was -2.51%.

Take `CCN1CCOCC12CCN(c1cnccn1)CC2`: the cytotoxicity at 70.5 h was -7.58%.

Turning to `Cc1nn(C)c(C)c1CN(CCO)C(=O)C1COc2ccccc2C1` (centres undefined), the cytotoxicity at 70.5 h was 30%.

On to `Cc1noc(C(C)N2CCN(Cc3noc(C4CC4)n3)CC2)n1` (centres undefined), for which the cytotoxicity at 70.5 h is -8.62%.

Take `CC(C)NC(=O)NC(=O)C(C)N1CCN(C2CCN(C(C)C)CC2)CC1` (centres undefined): the cytotoxicity at 70.5 h is -3.33%.

`O=C(Nc1ccc(Cl)cn1)c1nn(C2CCS(=O)(=O)C2)c2c1CCCC2` (centres undefined): the cytotoxicity at 70.5 h is -23%.

For `O=S(=O)(c1ccc(N2CCCCC2)c2nonc12)N1CCCCC1`, the cytotoxicity at 70.5 h was -11.2%.

As for `O=C(c1ccc[nH]1)N1CC[C@@H](OCC2CC2)[C@@H]1Cc1cccnc1`, the cytotoxicity at 70.5 h came to 0.146%.

As to `Cc1ccc(CN2C[C@@H]3CN(c4ncc(F)cn4)C[C@@H]3C2)cc1`, the cytotoxicity at 70.5 h is -1.01%.

As to `Cc1cnn(CC2CCCN2CC(=O)N(C)Cc2ccco2)c1` (centres undefined), the cytotoxicity at 70.5 h is -4.69%.

In the case of `Cn1c(C(=O)NC2CC2)nc2c1CCN(c1ncccn1)C2`, the cytotoxicity at 70.5 h is -4.38%.

Take `Cc1cnc(N2CCc3c(CNc4ccnc(C)n4)cncc3C2)nc1`: the cytotoxicity at 70.5 h was 18.6%.

Turning to `CC(C)CC(NCc1cccs1)c1ccccn1` (centres undefined), the cytotoxicity at 70.5 h was -13.2%.

As for `CCCN(CCC)c1ncc(S(=O)(=O)c2ccccc2)c(N)n1`, the cytotoxicity at 70.5 h is -15.1%.

For `c1cnn(-c2ccc(CN3CCOC(Cn4cncn4)C3)cc2)c1` (centres undefined), the cytotoxicity at 70.5 h stood at 18.2%.

Regarding `COc1cccc(NC(=O)c2cc3c([nH]c2=O)CCCC3=O)c1`, the cytotoxicity at 70.5 h is -8.19%.

For `O[C@@H]1CN(Cc2cnccn2)C[C@H]1Oc1ccccc1`, the cytotoxicity at 70.5 h was -6.26%.

In the case of `CN1CCCC(N(C)S(=O)(=O)c2cccc3ncccc23)C1` (centres undefined), the cytotoxicity at 70.5 h is -1.85%.

Consider `CCS(=O)(=O)N1CCC(NCC2CNc3cc(C)nn3C2)CC1` (centres undefined), for which the cytotoxicity at 70.5 h came out at 19.2%.

Consider `COc1cccc2ccn(CCC(=O)N3CCCC(C(=O)O)C3)c12` (centres undefined), for which the cytotoxicity at 70.5 h is -22.2%.

As for `COc1ccc(F)c(CN(CCCn2ccnc2)Cc2ccc(C)s2)c1`, the cytotoxicity at 70.5 h came out at 45.5%.

With `OC1CCN(Cc2c(-c3ccco3)[nH]c3ncccc23)CC1`, the cytotoxicity at 70.5 h was -5.94%.

For `Cc1cc(C2CCCCCN2Cc2cn(C)nc2C)no1` (centres undefined), the cytotoxicity at 70.5 h was -6.86%.

With `CC(C)COCC(NC(=O)c1cc[nH]n1)c1ccco1` (centres undefined), the cytotoxicity at 70.5 h amounted to 4.11%.

`CC(C)CC(O)C1CCN(Cc2ccc(N(C)C)nc2)CC1` (centres undefined): the cytotoxicity at 70.5 h was 23.2%.

With `COc1ccc(C2(NC(=O)c3ccc(=O)n(C)n3)CCCC2)cc1`, the cytotoxicity at 70.5 h was -12.4%.

For the compound `O=C(NC1CCCc2c1[nH]c1ccc(F)cc21)c1n[nH]c2c1CCC2` (centres undefined), the cytotoxicity at 70.5 h is 26.4%.

Consider `CC[C@@H](CO)NC(=O)c1cc(COc2ccc(OC)cc2Cl)[nH]n1`, for which the cytotoxicity at 70.5 h is -3.92%.

As to `COCc1nc(C(=O)N2CCCC2Cn2cc(C)cn2)cs1` (centres undefined), the cytotoxicity at 70.5 h was -6.43%.

In the case of `CN(C)c1nc2c(c(=O)[nH]1)CCN(C(=O)c1ccc(=O)[nH]c1)C2`, the cytotoxicity at 70.5 h was -3.2%.

Regarding `O=C1CC2(CCN(c3nncs3)C2)CN1c1cncnc1` (centres undefined), the cytotoxicity at 70.5 h is -0.39%.

On to `CC(C(=O)N1CCCCC1)N1CCN(c2nccs2)CC1` (centres undefined), for which the cytotoxicity at 70.5 h is 2.12%.

`CCN(CC)Cc1cc(C(=O)N2CCCC(O)(CO)C2)c(C)o1` (centres undefined): the cytotoxicity at 70.5 h is -7.27%.

As to `CC(NCc1ccncc1)c1cc(F)ccc1N1CCN(C)CC1` (centres undefined), the cytotoxicity at 70.5 h was -4.5%.

For `Cc1cc2n(n1)CC(CNC1CCN(Cc3ccccn3)CC1)CN2` (centres undefined), the cytotoxicity at 70.5 h is -6.35%.

Take `CCN(CC)C1CCN(c2nccc(C3CCCC3)n2)C1` (centres undefined): the cytotoxicity at 70.5 h was -13.5%.

For `Cc1cc(OCC(=O)N2CCCC(c3noc(C)n3)C2)no1` (centres undefined), the cytotoxicity at 70.5 h is -5.48%.
